Experimental data taken from patent US5693640A, “Pyridazino-indole derivatives” (Merck, Sharp & Dohme, Ltd., priority 1994, dated 1997).

Legend:
[1] = system: NMDA; test: Cortical slice studies: responses to NMDA in rat cortical slice; details: calculated from righthand shift in the NMDA concentration-response curve, read-out: apparent equilibrium constant (Kb) in response to NMDA
Excerpt: (§1) The compounds useful in this invention potently and selectively block responses to NMDA and/or AMPA in a brain slice from rat cortex, and inhibit the binding of agonists and antagonists to the strychnine-insensitive site present on the NMDA receptor and/or AMPA binding to rat forebrain membranes.
The effects of compounds of use in the invention on responses to NMDA and AMPA can be assessed using the rat cortical slice as described by Wong et al., Proc. Natl. Acad. Sci. USA, 1986, 83, 7104. The apparent equilibrium constant (Kb) is calculated from the righthand shift in the NMDA or AMPA concentration-response curves produced by the compound under test.

[2] = target: T1, strychnine-insensitive site present on the NMDA receptor (Rattus norvegicus, UniProt P35439); test: Displacement of 3H-L-689,560 binding, rat forebrain membranes; details: read-out: concentration required to displace 50% of the specific binding (IC50)
T1 construct: strychnine-insensitive site present on the NMDA receptor of rat forebrain membranes; from tissue; host or cells: rat forebrain membranes
Excerpt: as §1
The ability of test compounds to displace ^3 H-L-689,560 (trans-2-carboxy-5,7-dichloro-4-phenylaminocarbonylamino-1,2,3,4-tetrahydroquinoline) binding to the strychnine-insensitive site present on the NMDA receptor of rat forebrain membranes can be determined by the method of Grimwood et al., Proceedings of the British Pharmacological Society, July 1991, Abstract C78.

O=c1[nH]n(-c2ccccc2)c(=O)c2c1[nH]c1ccccc12 [Example 1, 2-Phenylpyridazino[4,5-b]indole-1,4-dione]
Kb [1]: < 150 µM | IC50 [2]: < 50 µM
